According to patent US20260297038A1, “ORTHO-PHTHALALDEHYDE-FUNCTIONALIZED ULTRAVIOLETABSORBERS AND VISIBLE CHROMOPHORES FOR SEMI-PERMANENT TOPICAL APPLICATIONS” (The Regents of the University of Colorado, a body corporate, priority 2023, published 2026):

How the values were obtained:
[1] = system: stratum corneum of excised porcine skin; assay: Semi-permanent retention of topical mark on excised porcine skin after repeated washing, and localization after bisection (FIG. 7); conditions: for retention of the mark on skin after washing: gel dried 10 minutes, washed after 3 hours, washing procedure repeated five times
Text: FIG. 7 is a set of annotated visible and ultraviolet photographs of excised porcine skin areas exposed to the composition described in Example 8 according to the method of Example 10, labeled o-phthalaldehyde, accompanied by a positive control based on genipin and three negative controls based on a commercially available organic and mineral SPF-30 sunscreens and permanent black marker, taken before the skin was washed, then after one wash, after five washes, and after five washes and bisection.
20 mg of 3,6-dihydroxy-4,5-dimethyl-1,2-benzenedicarboxaldehyde was mixed directly into 230 mg of a gel comprising 79.715% v/v water, 20% v/v ethanol, and 0.285% v/v carbomer 940 and stirred mechanically until a homogenous gel was obtained.
Freshly excised porcine skin was allowed to hydrate in reverse-osmosis purified water for 4 h, then it was cut into rectangular samples and stored for 24 hours in a closed container on top of a paper towel saturated with a solution of 90% water and 10% glycerol. The stratum corneum was wiped with a cotton gauze pad saturated with an aqueous solution of lysine at a concentration of 2 wt %. The gel composition prepared as described in […] was scooped onto a spatula, which was used to apply a thin layer of the gel in a circle of approximately 1-cm diameter on the stratum corneum. After allowing the gel to dry on the skin for 10 minutes, the skin sample was returned to the closed container with the saturated paper towel to allow the skin to remain hydrate while the reaction continued to develop. After 3 hours, the skin was removed and washed liberally by scrubbing the skin with a loofah saturated with a soap solution of 10% alcanox in water until a foam lather was formed, rinsed with reverse-osmosis water, and wiped with a paper towel saturated with a 70% isopropanol solution, and finally patted dry with a paper towel. This washing procedure was repeated five times.

[2] = Ultraviolet-visible absorption spectra of solutions of o-phthalaldehyde ultraviolet absorbers vs the parent carboxylic acids (FIG. 4); type: physicochemical; conditions: solution; for visible absorption introduced by the 3-(3,4-diformylphenyl)propyl moiety: compared with corresponding carboxylic acids
Text: FIG. 4 is a set of graphs of the ultraviolet-visible absorption spectra of solutions of (a) 4-((3-(2H-benzo[d][1,2,3]triazol-2-yl)-2-hydroxy-5-methylbenzyl)oxy)phthalaldehyde, prepared according to the process described in example 3, and 3-(3-(benzotriazole-2-yl)-5-tert-butyl-4-hydroxyphenyl)propanoic acid, (b) 3-(3-(2H-benzo[d][1,2,3]triazol-2-yl)-5-(tert-butyl)-4-hydroxyphenyl)propanoate, prepared according to the process described in Example 4, and 2-(4-diethylamino-2-hydroxybenzoyl)benzoic acid, (c) 3-(3,4-diformylphenyl)propyl 3-(4-methoxyphenyl)acrylate, prepared according to the process described in example 5, and 4-methoxycinnamic acid.

| SMILES | localization / penetration in skin layers ([1]; excessively washed, bisected through to the subcutis) | retention of the mark on skin after washing [1] | alteration of the absorption profiles of the ultraviolet-absorbing moieties by the 3-(3,4-diformylphenyl)propyl moiety [2] | visible absorption introduced by the 3-(3,4-diformylphenyl)propyl moiety [2] |
| --- | --- | --- | --- | --- |
| Cc1c(C)c(O)c(C=O)c(C=O)c1O [3,6-dihydroxy-4,5-dimethyl-1,2-benzenedicarboxaldehyde] | localized in the stratum corneum and did not penetrate to lower epidermal or dermal layers of the skin | retained |  |  |
| COC(=O)C1=CO[C@@H](O)[C@@H]2C(CO)=CC[C@H]12 [genipin, reference compound] |  | retained |  |  |
| CCN(CC)c1ccc(C(=O)c2ccccc2C(=O)OCCCc2ccc(C=O)c(C=O)c2)c(O)c1 [Example 4, 3-(3,4-diformylphenyl)propyl 2-(4-(diethylamino)-2-hydroxybenzoyl)benzoate] |  |  | only minor alteration of the absorption profiles | without introducing substantial visible absorption |
| CC(C)(C)c1cc(CCC(=O)OCCCc2ccc(C=O)c(C=O)c2)cc(-n2nc3ccccc3n2)c1O [Example 3, 3-(3,4-diformylphenyl)propyl 3-(3-(2H-benzo[d][1,2,3]triazol-2-yl)-5-(tert-butyl)-4-hydroxyphenyl)propanoate] |  |  | only minor alteration of the absorption profiles | without introducing substantial visible absorption |
| COc1ccc(C=CC(=O)OCCCc2ccc(C=O)c(C=O)c2)cc1 [Example 5, 3-(3,4-diformylphenyl)propyl 3-(4-methoxyphenyl)acrylate] |  |  | only minor alteration of the absorption profiles | without introducing substantial visible absorption |
